The results in this text go back to ChEMBL document CHEMBL1201862, “PubChem BioAssay data set” (2004).

Structures are written as SMILES.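 Test compounds were applied to cells in 96-well plates for 48 hours at 5 doses. GI50 is the concentration that inhibits growth by half.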 The source made the active and inactive calls. Cut-off read from the data, not from the text of the source: active = GI50 up to about 1.1 µM and inactive = higher. Bounds are passed on as bounds.

Among the test systems are HCT-116; OVCAR-4; OVCAR-3; SW-620; NCI-H23; UACC-257; OVCAR-5; SNB-75; HCT-15; HT-29; LOX IMVI; HOP-62; CAKI-1; EKVX; RXF 393; UO-31.
Holding throughout (assay): DTP human tumour cell line panel, 48 h

A word on the GI50: it is the concentration at which growth is held to half of that of the control. Consider `COC(=O)c1cc(C(=O)OC)c(CC(=O)C(=O)NC2C3CC4CC(C3)CC2C4)nc1CC(=O)C(=O)NC1C2CC3CC(C2)CC1C3` (stereo not given), for which the GI50 in the assay with HCT-116, with OVCAR-4, in the assay with OVCAR-3, in the assay on SW-620, in the assay with NCI-H23 and with UACC-257 was > 100 µM (inactive) in each case. Besides, the GI50 with OVCAR-5 was > 100 µM (inactive); in the assay with SNB-75 it was > 100 µM (inactive); in the assay with HCT-15, over 100 µM; in the assay with HT-29 it was > 100 µM (inactive); with LOX IMVI, > 100 µM (inactive); with HOP-62, > 100 µM (inactive). Moreover, the GI50 with CAKI-1, in the assay with EKVX, with RXF 393 and in the assay with UO-31 was > 100 µM (inactive) throughout.
As to `Cc1cc2c(C)n(Cc3ccc(Cl)cc3Cl)nc2c(C#N)c1C`, the GI50 in the assay with HCT-116 was 29.8 µM (inactive); in the assay with OVCAR-4, 9.89 µM (inactive); in the assay on OVCAR-3, 34.7 µM (inactive); in the assay on SW-620 it was > 100 µM (inactive); in the assay on NCI-H23 it was 41.7 µM (inactive); in the assay with UACC-257, > 100 µM (inactive). Also, the GI50 was > 42.1 µM (inactive) in the assay with OVCAR-5; 7.94 µM (inactive) with SNB-75; over 100 µM with HCT-15; 55.5 µM (inactive) in the assay on HT-29; 49.5 µM (inactive) in the assay with LOX IMVI; 20 µM (inactive) in the assay with HOP-62. The GI50 in the assay with CAKI-1 was 41.8 µM (inactive); in the assay with EKVX, 57.1 µM (inactive); in the assay on RXF 393, 15.3 µM (inactive); with UO-31, 52.8 µM (inactive).
For the compound `O=C1c2ccccc2N2OC3(N4CCOCC4)CCCC3C12c1ccccc1` (stereo not given), the GI50 in the assay with HCT-116, in the assay on OVCAR-4, with SW-620, with NCI-H23, with UACC-257 and with SNB-75 was > 100 µM (inactive) in each case. The GI50 with HCT-15 was over 100 µM; in the assay on HT-29, > 100 µM (inactive); with HOP-62, > 100 µM (inactive); in the assay with EKVX, > 100 µM (inactive); in the assay on RXF 393 it was 49.2 µM (inactive); in the assay on UO-31, > 100 µM (inactive).
Regarding `Clc1cccc(C2SCc3nc4ccccc4n32)c1` (stereo not given), the GI50 in the assay on OVCAR-4 was 27 µM (inactive); in the assay on OVCAR-3, 14.4 µM (inactive); with SW-620, 32.9 µM (inactive); with NCI-H23, 18.3 µM (inactive); in the assay with OVCAR-5, 15 µM (inactive); with SNB-75, 3.52 µM (inactive). Also, the GI50 with HCT-15 is 16.8 µM; in the assay with HT-29 it was 23.7 µM (inactive); with LOX IMVI it was 15.2 µM (inactive); with HOP-62, 20 µM (inactive); in the assay with CAKI-1, 27 µM (inactive); in the assay with EKVX it was 17.5 µM (inactive). Besides, the GI50 in the assay on RXF 393 was 15 µM (inactive).
`O=C(Nc1ccc(Br)cc1)C(=O)C(C(=O)c1ccc(Cl)c(Cl)c1)C1OC(=O)c2ccccc21` (stereo not given): the GI50 in the assay on HCT-116 is 12.5 µM (inactive); in the assay on OVCAR-4 it was 16.3 µM (inactive); with OVCAR-3, 18.5 µM (inactive); in the assay on SW-620, 14 µM (inactive); in the assay with NCI-H23, 13.9 µM (inactive); in the assay with UACC-257, 16 µM (inactive). Moreover, the GI50 was 17.3 µM (inactive) in the assay on OVCAR-5; 20.8 µM (inactive) with SNB-75; 20.9 µM in the assay with HCT-15; 21.3 µM (inactive) in the assay with HT-29; 17.6 µM (inactive) with LOX IMVI; 15.2 µM (inactive) in the assay with HOP-62. Moreover, the GI50 in the assay on CAKI-1 is 14.4 µM (inactive); in the assay on EKVX, 28.8 µM (inactive); in the assay with RXF 393, 3.5 µM (inactive); with UO-31, 18.5 µM (inactive).
In the case of `COC1(OC)CC2CCCCC2=C(C)N1S(=O)(=O)c1ccccc1` (stereo not given), the GI50 in the assay on HCT-116, with OVCAR-4, in the assay on OVCAR-3, in the assay on SW-620, in the assay on NCI-H23 and in the assay with UACC-257 was > 100 µM (inactive) in each case. For the same compound, the GI50 in the assay on OVCAR-5 was > 100 µM (inactive); in the assay with SNB-75, > 100 µM (inactive); with HCT-15 it was over 100 µM; in the assay with HT-29, > 100 µM (inactive); in the assay on LOX IMVI, > 100 µM (inactive); in the assay with HOP-62, > 100 µM (inactive). The GI50 with CAKI-1, in the assay on EKVX, in the assay with RXF 393 and with UO-31 was > 100 µM (inactive) in each case.
Consider `COC(=O)/C=C(C)/C=C/C1OC(C)OCC1O` (stereo not given), for which the GI50 in the assay on OVCAR-4, in the assay with OVCAR-3, in the assay on SW-620, with NCI-H23, in the assay on UACC-257 and with OVCAR-5 was > 100 µM (inactive) throughout. The GI50 was over 100 µM in the assay with HCT-15; > 100 µM (inactive) in the assay with HT-29; > 100 µM (inactive) in the assay with LOX IMVI; > 100 µM (inactive) in the assay with HOP-62; > 100 µM (inactive) with CAKI-1; > 100 µM (inactive) with EKVX. Moreover, in the assay with UO-31, the GI50 is > 100 µM (inactive).
`Nc1nc2c(ncn2Cc2ccccc2CCO)c(=O)[nH]1`: the GI50 in the assay with OVCAR-4, with OVCAR-3, with SW-620, in the assay on NCI-H23, in the assay with OVCAR-5 and with SNB-75 was > 100 µM (inactive) each time. For the same compound, the GI50 is over 100 µM in the assay with HCT-15; > 100 µM (inactive) in the assay on HT-29; > 100 µM (inactive) in the assay with LOX IMVI; > 100 µM (inactive) in the assay with HOP-62; > 100 µM (inactive) in the assay with CAKI-1; > 100 µM (inactive) with EKVX. Besides, the GI50 in the assay with RXF 393 and in the assay on UO-31 was > 100 µM (inactive) throughout.
Turning to `Oc1nc2cc(Cl)ccc2nc1/C(=N\Nc1ccccc1)C(O)c1ccc(Cl)c(Cl)c1` (stereo not given), the GI50 with HCT-116, in the assay on OVCAR-4, in the assay on OVCAR-3, with SW-620, with NCI-H23 and in the assay on UACC-257 was > 100 µM (inactive) in each case. The GI50 is > 100 µM (inactive) in the assay with OVCAR-5; > 100 µM (inactive) in the assay on SNB-75; over 100 µM with HCT-15; > 100 µM (inactive) in the assay on HT-29; > 100 µM (inactive) with LOX IMVI; > 100 µM (inactive) in the assay with HOP-62. Moreover, the GI50 in the assay on EKVX, in the assay with RXF 393 and in the assay with UO-31 was > 100 µM (inactive) throughout.
Regarding `Cc1csc2nc(-c3ccncc3)cn12`, the GI50 was > 42.2 µM (inactive) with HCT-116; > 49.4 µM (inactive) with OVCAR-4; > 100 µM (inactive) with OVCAR-3; > 21.1 µM (inactive) with SW-620; > 100 µM (inactive) in the assay on NCI-H23; > 100 µM (inactive) in the assay on UACC-257. The GI50 was > 100 µM (inactive) in the assay with OVCAR-5; > 100 µM (inactive) with SNB-75; over 40.9 µM in the assay with HCT-15; > 100 µM (inactive) in the assay on HT-29; > 43.4 µM (inactive) with LOX IMVI; > 100 µM (inactive) in the assay with HOP-62. The values for the GI50 with CAKI-1, in the assay on EKVX and in the assay on UO-31 were > 100 µM (inactive), > 59.7 µM (inactive) and > 100 µM (inactive), respectively.
For `N#Cc1cc([N+](=O)[O-])ccc1NC(=O)C(F)(F)F`, the GI50 in the assay on HCT-116 is > 42.9 µM (inactive); with OVCAR-4, > 100 µM (inactive); in the assay on OVCAR-3, > 100 µM (inactive); in the assay on SW-620 it was > 40.9 µM (inactive); with NCI-H23, > 100 µM (inactive); in the assay on UACC-257, > 100 µM (inactive). The GI50 is > 100 µM (inactive) in the assay on OVCAR-5; > 49.7 µM (inactive) in the assay with SNB-75; over 41.4 µM in the assay with HCT-15; > 45.5 µM (inactive) in the assay with HT-29; > 34.7 µM (inactive) with LOX IMVI; > 100 µM (inactive) in the assay on HOP-62. In addition, the GI50 was > 100 µM (inactive) with CAKI-1, > 100 µM (inactive) in the assay with EKVX, > 56.6 µM (inactive) with RXF 393 and > 100 µM (inactive) in the assay on UO-31.
Consider `CCN(CC)c1ccc(/N=N/c2ccc(-c3nc4cccn(C)c-4n3)cc2)cc1`, for which the GI50 is 3.61 µM (inactive) with HCT-116; 11.2 µM (inactive) in the assay with OVCAR-4; 10.5 µM (inactive) with OVCAR-3; 7.36 µM (inactive) in the assay on SW-620; 11.4 µM (inactive) in the assay on NCI-H23; 9.14 µM (inactive) with UACC-257. The GI50 in the assay on OVCAR-5 was 3.56 µM (inactive); in the assay on SNB-75, 17 µM (inactive); with HCT-15 it was 3.75 µM; in the assay on HT-29, 1.98 µM (inactive); in the assay on LOX IMVI, 2.52 µM (inactive); with HOP-62, 10.4 µM (inactive). Besides, the GI50 with CAKI-1 was 16.6 µM (inactive); in the assay on EKVX, 18.5 µM (inactive); in the assay on RXF 393, 3.21 µM (inactive); with UO-31, 17.1 µM (inactive).
For the compound `Cc1ccc(SC(C)/C=C/NNC2=NN=C(c3ccccc3)C(c3ccccc3)N2)cc1` (stereo not given), the GI50 in the assay with HCT-116 was 39.6 µM (inactive); in the assay on OVCAR-4, 29.1 µM (inactive); in the assay with OVCAR-3 it was 25.5 µM (inactive); in the assay on SW-620, 46.5 µM (inactive); in the assay with NCI-H23, 48.9 µM (inactive); with UACC-257 it was 31.5 µM (inactive). Further, the GI50 is 21.5 µM (inactive) in the assay on OVCAR-5; 20.7 µM (inactive) in the assay with SNB-75; 26.9 µM with HCT-15; 13.3 µM (inactive) with HT-29; 25.7 µM (inactive) in the assay on LOX IMVI; 13.5 µM (inactive) with CAKI-1. Further, the values for the GI50 in the assay on EKVX and in the assay on UO-31 were 44.8 µM (inactive) and 12.4 µM (inactive), respectively.
Turning to `COC(=O)/C(=N/NC(C)(C)C)C(C(=O)C=C(C)C)C(=O)C(=O)Nc1ccc(Cl)cc1C` (stereo not given), the GI50 in the assay on HCT-116, with OVCAR-4, with OVCAR-3, in the assay on SW-620, with NCI-H23 and with UACC-257 was > 100 µM (inactive) each time. Also, the GI50 was > 100 µM (inactive) with OVCAR-5; over 100 µM in the assay on HCT-15; > 100 µM (inactive) in the assay on HT-29; > 100 µM (inactive) in the assay on HOP-62; > 100 µM (inactive) in the assay on CAKI-1; > 100 µM (inactive) in the assay on EKVX. In addition, in the assay on UO-31, the GI50 is > 100 µM (inactive).
